Source: patent US11739098B2 (BRISTOL-MYERS SQUIBB COMPANY, priority 2017, dated 2023)

Legend:
Assay type in all cases: cell-based
human TLR9 = biological target: T1, human TLR9 (Homo sapiens, UniProt Q9NR96); assay: TLR9 inhibition reporter assay (HEK-Blue cells, SEAP reporter, ODN2006 stimulation); details: HEK-Blue cells overexpressing human TLR9, SEAP reporter, ODN2006 5 nM
T1 construct: host or cells: HEK-Blue cells (HEK293-derived reporter line)
T1 sequence (Q9NR96 26-1032): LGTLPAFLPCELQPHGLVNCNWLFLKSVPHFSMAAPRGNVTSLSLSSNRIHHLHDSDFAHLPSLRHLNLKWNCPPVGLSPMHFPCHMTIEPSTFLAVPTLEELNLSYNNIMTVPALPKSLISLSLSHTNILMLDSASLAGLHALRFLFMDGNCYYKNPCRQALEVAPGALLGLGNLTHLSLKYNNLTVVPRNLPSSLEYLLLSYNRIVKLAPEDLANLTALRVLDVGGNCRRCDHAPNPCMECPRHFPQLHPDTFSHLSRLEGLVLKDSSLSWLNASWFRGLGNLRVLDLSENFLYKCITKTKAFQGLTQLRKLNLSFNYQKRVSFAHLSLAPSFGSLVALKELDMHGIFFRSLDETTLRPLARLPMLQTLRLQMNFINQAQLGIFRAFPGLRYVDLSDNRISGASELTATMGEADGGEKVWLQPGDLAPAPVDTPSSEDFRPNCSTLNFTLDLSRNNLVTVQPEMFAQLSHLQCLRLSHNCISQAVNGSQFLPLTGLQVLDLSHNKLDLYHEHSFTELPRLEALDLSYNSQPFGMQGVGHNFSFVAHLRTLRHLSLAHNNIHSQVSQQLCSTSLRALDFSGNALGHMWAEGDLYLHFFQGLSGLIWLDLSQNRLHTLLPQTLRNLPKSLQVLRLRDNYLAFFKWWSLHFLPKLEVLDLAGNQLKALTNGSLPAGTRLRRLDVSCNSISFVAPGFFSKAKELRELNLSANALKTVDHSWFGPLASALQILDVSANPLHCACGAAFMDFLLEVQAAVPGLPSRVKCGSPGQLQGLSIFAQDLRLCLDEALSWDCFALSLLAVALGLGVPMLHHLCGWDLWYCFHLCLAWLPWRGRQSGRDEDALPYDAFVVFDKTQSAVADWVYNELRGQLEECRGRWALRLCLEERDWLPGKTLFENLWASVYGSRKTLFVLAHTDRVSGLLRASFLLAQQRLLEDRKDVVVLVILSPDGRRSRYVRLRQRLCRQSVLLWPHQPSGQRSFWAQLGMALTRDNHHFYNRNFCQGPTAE
Outline: (§1)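 Agonists (final): TLR7 gardiquimod 7.5 μM; TLR8 R848 15.9 μM; TLR9 ODN2006 5 nM. HEK-Blue reporter cells, 30 min RT compound pre-incubation, 0.05 nM–50 μM dose range, 22 h at 37 °C, colorimetric SEAP detection medium. % inhibition relative to agonist+DMSO and known-inhibitor wells.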

human TLR8 = biological target: T2, human TLR8 (Homo sapiens, UniProt Q9NR97); assay: TLR8 inhibition reporter assay (HEK-Blue cells, SEAP reporter, R848 stimulation); details: HEK-Blue cells overexpressing human TLR8, SEAP reporter, R848 15.9 μM
T2 construct: host or cells: HEK-Blue cells (HEK293-derived reporter line)
T2 sequence (Q9NR97 27-1041): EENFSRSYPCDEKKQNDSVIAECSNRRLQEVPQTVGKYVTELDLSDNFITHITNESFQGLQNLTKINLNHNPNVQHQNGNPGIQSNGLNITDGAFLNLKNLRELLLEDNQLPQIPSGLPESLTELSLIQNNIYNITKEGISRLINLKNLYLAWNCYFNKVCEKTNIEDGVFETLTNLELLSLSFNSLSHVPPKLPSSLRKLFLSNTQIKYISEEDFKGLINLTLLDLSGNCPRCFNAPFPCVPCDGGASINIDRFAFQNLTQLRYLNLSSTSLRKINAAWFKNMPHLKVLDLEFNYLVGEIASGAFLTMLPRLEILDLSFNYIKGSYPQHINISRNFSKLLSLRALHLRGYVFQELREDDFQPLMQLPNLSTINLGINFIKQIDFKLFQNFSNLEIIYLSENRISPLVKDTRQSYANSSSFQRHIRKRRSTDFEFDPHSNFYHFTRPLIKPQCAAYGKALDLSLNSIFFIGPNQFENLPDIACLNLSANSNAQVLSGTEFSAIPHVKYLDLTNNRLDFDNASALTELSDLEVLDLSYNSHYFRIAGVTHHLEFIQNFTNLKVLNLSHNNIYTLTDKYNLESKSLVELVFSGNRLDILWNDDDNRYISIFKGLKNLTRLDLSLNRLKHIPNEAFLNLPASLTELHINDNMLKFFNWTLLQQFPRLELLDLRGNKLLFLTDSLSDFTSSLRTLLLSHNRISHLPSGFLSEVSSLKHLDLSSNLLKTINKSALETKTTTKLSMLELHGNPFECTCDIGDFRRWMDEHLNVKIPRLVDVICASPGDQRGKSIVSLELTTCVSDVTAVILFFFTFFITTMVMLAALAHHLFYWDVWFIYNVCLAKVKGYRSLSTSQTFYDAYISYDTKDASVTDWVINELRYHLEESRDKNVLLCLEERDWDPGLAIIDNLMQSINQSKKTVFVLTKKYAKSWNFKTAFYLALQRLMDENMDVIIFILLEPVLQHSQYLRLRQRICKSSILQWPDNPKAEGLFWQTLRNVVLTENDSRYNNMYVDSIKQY
Outline: as §1

human TLR7 = biological target: T3, human TLR7 (Homo sapiens, UniProt Q9NYK1); assay: TLR7 inhibition reporter assay (HEK-Blue cells, SEAP reporter, gardiquimod stimulation); details: HEK-Blue cells overexpressing human TLR7, SEAP reporter, gardiquimod 7.5 μM
T3 construct: host or cells: HEK-Blue cells (HEK293-derived reporter line)
T3 sequence (Q9NYK1 27-1049): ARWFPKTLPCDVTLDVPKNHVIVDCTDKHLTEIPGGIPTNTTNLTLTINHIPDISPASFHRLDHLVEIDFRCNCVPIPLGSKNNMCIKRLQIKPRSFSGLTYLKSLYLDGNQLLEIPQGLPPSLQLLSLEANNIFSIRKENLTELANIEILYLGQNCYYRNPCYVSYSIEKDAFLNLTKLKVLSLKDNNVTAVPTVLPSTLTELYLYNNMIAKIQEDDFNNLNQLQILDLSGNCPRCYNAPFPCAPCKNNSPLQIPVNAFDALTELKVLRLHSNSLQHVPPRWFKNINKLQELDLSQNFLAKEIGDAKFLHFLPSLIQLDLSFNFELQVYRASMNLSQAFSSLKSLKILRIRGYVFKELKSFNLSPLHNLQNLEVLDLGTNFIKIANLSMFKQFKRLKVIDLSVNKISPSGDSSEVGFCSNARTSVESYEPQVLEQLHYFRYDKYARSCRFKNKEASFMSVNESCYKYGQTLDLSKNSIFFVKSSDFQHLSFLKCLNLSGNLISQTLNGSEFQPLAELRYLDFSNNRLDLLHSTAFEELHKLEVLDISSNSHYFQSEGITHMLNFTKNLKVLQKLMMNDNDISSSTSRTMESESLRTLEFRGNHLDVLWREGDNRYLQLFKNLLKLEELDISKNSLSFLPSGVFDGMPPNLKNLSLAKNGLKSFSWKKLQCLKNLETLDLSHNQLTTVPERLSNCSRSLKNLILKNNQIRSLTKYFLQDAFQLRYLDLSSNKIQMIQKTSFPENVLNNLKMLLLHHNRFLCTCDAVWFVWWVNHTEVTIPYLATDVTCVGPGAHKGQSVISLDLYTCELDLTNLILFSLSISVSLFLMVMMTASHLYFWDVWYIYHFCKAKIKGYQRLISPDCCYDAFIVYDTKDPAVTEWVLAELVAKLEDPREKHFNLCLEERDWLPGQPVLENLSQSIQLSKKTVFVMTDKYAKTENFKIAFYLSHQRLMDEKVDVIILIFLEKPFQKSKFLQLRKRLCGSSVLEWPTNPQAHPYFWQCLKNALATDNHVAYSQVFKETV
Outline: as §1

Structure (SMILES) | IC50 (human TLR9) | IC50 (human TLR8) | IC50 (human TLR7)
CNc1c[nH]c2nccc(-c3[nH]c4ccc(C5CCNCC5)cc4c3C)c12 [Example 210, N-methyl-4-(3-methyl-5-(piperidin-4-yl)-1H-indol-2-yl)-1H-pyrrolo[2,3-b]pyridin-3-amine] | 1000 to 50000 nM | 1000 to 50000 nM | 1000 to 50000 nM
Cc1cc(-c2[nH]c3ccc(C4CCN(C(=O)CN5CCS(=O)(=O)CC5)CC4)cc3c2C(C)C)cn2nnnc12 [Example 485, 2-(1,1-dioxidothiomorpholino)-1-(4-(3-isopropyl-2-(8-methyltetrazolo[1,5-a]pyridin-6-yl)-1H-indol-5-yl)piperidin-1-yl)ethan-1-one] | > 50000 nM | < 100 nM | < 100 nM
Cc1cc2ncnn2nc1-c1[nH]c2ccc(C3CCN(C(=O)CN(C)C)CC3)cc2c1C(C)C [Example 455, 2-(dimethylamino)-1-(4-(3-isopropyl-2-(7-methyl-[1,2,4]triazolo[1,5-b]pyridazin-6-yl)-1H-indol-5-yl)piperidin-1-yl)ethan-1-one] | 1000 to 50000 nM | < 100 nM | < 100 nM
CCc1c(-c2ccc3[nH]c(=O)[nH]c3c2)[nH]c2ccc(C3CCNCC3)cc12 [Example 166, 5-(3-ethyl-5-(piperidin-4-yl)-1H-indol-2-yl)-1,3-dihydro-2H-benzo[d]imidazol-2-one] | 1000 to 50000 nM | 100 to 1000 nM | 1000 to 50000 nM
CC(C)c1c(-c2cn(C)c3ncccc23)[nH]c2ccc(C3CCN(CC(=O)N(C)C)CC3)cc12 [Example 295, 2-(4-(3-isopropyl-2-(1-methyl-1H-pyrrolo[2,3-b]pyridin-3-yl)-1H-indol-5-yl)piperidin-1-yl)-N,N-dimethylacetamide] | 1000 to 50000 nM | < 100 nM | < 100 nM
Cc1ccc(-c2[nH]c3ccc(C4CCN(CC(C)(C)O)CC4)cc3c2C(C)C)c2ncnn12 [Example 769, 1-(4-(3-isopropyl-2-(5-methyl-[1,2,4]triazolo[1,5-a]pyridin-8-yl)-1H-indol-5-yl)piperidin-1-yl)-2-methylpropan-2-ol] | 1000 to 50000 nM | < 100 nM | < 100 nM
CC(C)c1c(-c2ccc3occc3c2)[nH]c2ccc(C3CCNCC3)cc12 [Example 67, 2-(benzofuran-5-yl)-3-isopropyl-5-(piperidin-4-yl)-1H-indole] | 1000 to 50000 nM | 100 to 1000 nM | 100 to 1000 nM
CC(C)c1c(-c2ccnc3[nH]ncc23)[nH]c2ccc(C3CCN(C(=O)CCN4CCCCC4)CC3)cc12 [Example 641, 1-(4-(3-isopropyl-2-(1H-pyrazolo[3,4-b]pyridin-4-yl)-1H-indol-5-yl)piperidin-1-yl)-3-(piperidin-1-yl)propan-1-one] | 1000 to 50000 nM | < 100 nM | < 100 nM

The remaining lines, values ahead:

IC50 (human TLR9) | IC50 (human TLR8) | IC50 (human TLR7) | Structure (SMILES)
1000 to 50000 nM | > 3130 nM | 1000 to 50000 nM | CNC(=O)CN1CCC(c2ccc3[nH]c(-c4cnc5ccnn5c4)c(C(C)C)c3c2)CC1 [Example 360, 2-(4-(3-isopropyl-2-(pyrazolo[1,5-a]pyrimidin-6-yl)-1H-indol-5-yl)piperidin-1-yl)-N-methylacetamide]
100 to 1000 nM | 100 to 1000 nM | < 100 nM | Cc1cn2cc(-c3[nH]c4ccc(C5CCNCC5)cc4c3C(C)C)cc(C(F)(F)F)c2n1 [Example 137, 6-(3-isopropyl-5-(piperidin-4-yl)-1H-indol-2-yl)-2-methyl-8-(trifluoromethyl)imidazo[1,2-a]pyridine]
100 to 1000 nM | 100 to 1000 nM | < 100 nM | Cc1c(-c2[nH]c3ccc(C4CCNCC4)cc3c2C(C)C)cn2ccnc2c1C(C)C [Example 273, 8-isopropyl-6-(3-isopropyl-5-(piperidin-4-yl)-1H-indol-2-yl)-7-methylimidazo[1,2-a]pyridine]
100 to 1000 nM | 1000 to 50000 nM | 100 to 1000 nM | Cc1cn2c(C)cc(-c3[nH]c4ccc(C5CCN(C(=O)CN(C)C)CC5)cc4c3C(C)C)cc2n1 [Example 499, 2-(dimethylamino)-1-(4-(2-(2,5-dimethylimidazo[1,2-a]pyridin-7-yl)-3-isopropyl-1H-indol-5-yl)piperidin-1-yl)ethan-1-one]
< 100 nM | < 100 nM | < 100 nM | CC(C)c1c(-c2ccc3nccn3c2)[nH]c2ccc(C3CCN(Cc4c[nH]cn4)CC3)cc12 [Example 940, 6-(5-(1-((1H-imidazol-4-yl)methyl)piperidin-4-yl)-3-isopropyl-1H-indol-2-yl)imidazo[1,2-a]pyridine]
100 to 1000 nM | < 100 nM | < 100 nM | CC(C)c1c(-c2cc(Cl)cc3nccn23)[nH]c2ccc(C3CCNCC3)cc12 [Example 127, 7-chloro-5-(3-isopropyl-5-(piperidin-4-yl)-1H-indol-2-yl)imidazo[1,2-a]pyridine]
100 to 1000 nM | < 100 nM | < 100 nM | Cc1c(-c2ccnc3[nH]ccc23)[nH]c2ccc(C3CCN(C4CCN(C)CC4)CC3)cc12 [Example 810, 4-(3-methyl-5-(1′-methyl-[1,4′-bipiperidin]-4-yl)-1H-indol-2-yl)-1H-pyrrolo[2,3-b]pyridine]
